Experimental findings from ChEMBL document CHEMBL1136425, “A novel metal-chelating inhibitor of protein farnesyltransferase” (Bioorg Med Chem Lett, 2003) are described below.

Values after ≈ are worked out from the molar mass of the structure shown.

The IC50 is the concentration that gives 50% inhibition. A lower IC50 goes with greater potency.

The first assay addresses Protein farnesyltransferase (Homo sapiens, UniProt P49354+P49356). As to the kind of experiment: Inhibition of [3H]farnesyl pyrophosphate binding to human farnesyltransferase. The format is protein-complex assay.
In turn, `CN(C)c1cc(CNCCS)nc(CNCCS)c1` displayed an IC50 of 0.62 mM.

Consider `c1ccc(-c2ccccn2)nc1`, for which the IC50 amounted to 100 mM. Still for that read-out and setting: in the case of `NCCN` [ETHYLENEDIAMINE] it was 15.5 mM. On the same count and under the same terms, as for `CCCC[C@@H](C)/C=C(C)/C=C(\C)C(=O)NC1=C[C@@](O)(/C=C/C=C/C=C/C(=O)NC2=C(O)CCC2=O)[C@@H]2O[C@@H]2C1=O` [MANUMYCIN A], the figure is 0.0119 mM; as for `c1cnc2c(c1)ccc1cccnc12` [PHENANTHROLINE], 4 mM.

System in a further assay: not listed separately
Nature of the assay: Inhibitory activity against K-rasNRK cells. The format is functional, cell-based, Rattus norvegicus.
The compound `SCCNCc1cc(-c2cccc3ccccc23)cc(CNCCS)n1` returned an IC50 of 0.32 µg/mL (≈ 0.834 µM).
